Measured values taken from US4447445A (priority 1983, dated 1984).
In brackets after ≈: the same amount, converted by molar mass. Several values for one entry are separate records, joined by “and”; a condition that tells them apart may be missing. Equal entries are not always repeated. Entries after “also recorded” stand apart in the source; their conditions may differ.

Columns and labels:
isolated diaphragm = experiment: Rat Phrenic Nerve - Hemidiaphragm; conditions: for effects on skeletal muscle: preliminary assays
Description: Compound is tested for its ability to inhibit or facilitate the twitch of the isolated diaphragm in response to the electrical stimulation of the phrenic nerve [Bulbring, E., Br. J. Pharmac. Chemother. 1, 38 (1946)].

[1] = tested on: PMA induced inflammation of mouse ears; experiment: PMA Mouse Ear Anti-Inflammatory Assay; format: in vivo; conditions: for % Inhibition of Edema Alone: Manoalide 0.04 mg/ear, Hydrocortisone 0.009 mg/ear, Indomethacin 0.09 mg/ear
Description: (§1) Test compound and phorbol myristate acetate (PMA) or arachidonic acid (ARA) are topically applied simultaneously to the left ears of mice. Three hours 20 minutes (or one hour for ARA) after application, the mouse is sacrificed, left and right ears removed and standard sized bores taken. Edema (inflammation) is measured as the difference in weight between left and right ears [Van Arman, C. G., Clin. Pharmacol. Ther. 16, 900-904 (1974)].

[2] = tested on: spontaneous beating isolated guinea pig auricles; experiment: Guinea Pig Auricles; conditions: for effects on cardiac muscle: preliminary assays
Description: Test compound is administered to the spontaneous beating isolated guinea pig auricles and observed for its ability to alter either the rate or the force of contraction or to antagonize the effects of acetylcholine [modified from J. Physiol. 61, 547 (1926); Heffter's Hanb. Exp. Pharmak. 4, 185 (1937)].

[3] = tested on: eggs (from Lytechinus pictus); experiment: Fertilized Sea Urchin Egg Inhibition of Cleavage Assay; format: cell-based; conditions: for inhibition of cell division: preliminary assays
Description: Test compound is added to a slurry of eggs (from Lytechinus pictus) within five minutes following fertilization and incubated until the completion of first division in control slurry, approximately 90 minutes. Inhibition is measured as the percent of undivided eggs in the slurry at the end of incubation [Hinegardner, R., In The Sea Urchin Embryo, ed. C. Czihar (Springer-Verlag, Berlin, 1974)].

[4] = tested on: ARA induced inflammation of mouse ears; experiment: Arachidonic Acid Mouse Ear Assay; conditions: in vivo
Description: as §1

[5] = tested on: oxazolone induced inflammation of mouse ears; experiment: Oxazolone-Induced Sensitization inflammation; format: in vivo; conditions: for EAR WEIGHT (MGS): with oxazolone
Description: Mice are sensitized by the application of oxazolone to the abdominal area. One week later, test compound and oxazolone are topically applied to the ears of these mice. Six hours after application, the mice are sacrificed, the ears removed and standard sized bores taken and weighed. Edema (inflammation) is measured as the difference in weight between control and treated ears. Without previous sensitization exposure, oxazolone has no inflammatory effect on mouse ears.

isolated rat uterus = experiment: Rat Uterus (Prostaglandin Assay); conditions: against PGE2, PGE1 and PGF2
[6] = tested on: PMA induced inflammation of mouse ears; experiment: PMA Mouse Ear Anti-Inflammatory Assay; conditions: in vivo
β-bungarotoxin = β-bungarotoxin (Bungarus multicinctus, UniProt P00617)
mice [7] = experiment: Acute Toxicity (with analgesia screening); format: in vivo, mouse; conditions: initial screening
Description: Test compound is injected subcutaneously into mice which are observed for three days for both lethality and any unusual behavior or appearance. This assay may be performed in conjunction with analgesia assays.

[8] = target: phospholipase A2 from bee venom (Apis mellifera, UniProt P00630); format: biochemical
mice [9] = experiment: Analgesia - Haffner Technique (tail clip); format: in vivo, mouse; conditions: high doses
Description: Analgesia is measured as the lack of response to a pinch clamp applied to the tail of a mouse 15 to 30 minutes following subcutaneous injection of the test compound [Bianchi, G. and G. Franeschini, Brit. J. Pharmac. 9, 280 (1954)].

acetylcholinesterase = target: T1, acetylcholinesterase (Rattus norvegicus, UniProt P37136); experiment: Acetylcholinesterase Assay; format: biochemical
T1 construct: rat brain extract (source of acetylcholinesterase); from tissue; host or cells: rat brain extract
Description: Test compound is incubated with rat brain extract (source of acetylcholinesterase), acetylthiocholine and dithiobis (2-nitrobenzoic acid). Inhibition of acetylcholinesterase activity is measured spectrophotometrically.

[10] = tested on: electrically driven section of isolated small intestine; experiment: Electrically Stimulated Guinea Pig Ileum
[11] = tested on: tumors formed on mouse ears; experiment: Tumor Promotion (DMBA/PMA mouse ear); format: in vivo; conditions: PMA as promoter with initiator DMBA
Excerpt: An initiating agent, 7,12-dimethylbenzanthracene (DMBA), is applied topically to the ears of mice. Beginning one month later, a tumor promoting agent, phorbol myristate acetate (PMA), and the test compound are applied simultaneously to the ears twice per week for four weeks, then once per week for two weeks. Ears are observed for formation of tumors at the times of application and one week following completion of applications.

mouse ears = experiment: Histology of mouse ears from the anti-inflammatory assay; conditions: in vivo
Excerpt: Mouse ears from the anti-inflammatory assay are fixed in Karnofsky's fixative and osmium tetroxide and then embedded in araldite epoxy resin for sectioning for light and electron microscopy.

[12] = tested on: isolated section of small intestine; experiment: Guinea Pig Ileum; conditions: initial screening
[13] = mouse, in vivo, listed as manoalide

phospholipase A2 from bee venom, sequence (P00630 34-167 limits assumed): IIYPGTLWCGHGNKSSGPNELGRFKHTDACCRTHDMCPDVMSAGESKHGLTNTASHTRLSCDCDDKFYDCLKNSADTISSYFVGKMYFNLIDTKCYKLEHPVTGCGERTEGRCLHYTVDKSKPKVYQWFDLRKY
β-bungarotoxin, sequence (P00617 whole entry, looked up): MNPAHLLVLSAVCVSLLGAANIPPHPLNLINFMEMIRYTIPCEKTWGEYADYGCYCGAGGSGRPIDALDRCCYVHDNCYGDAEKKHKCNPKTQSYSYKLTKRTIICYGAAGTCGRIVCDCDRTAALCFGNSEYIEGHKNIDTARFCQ
T1 sequence (P37136 32-614): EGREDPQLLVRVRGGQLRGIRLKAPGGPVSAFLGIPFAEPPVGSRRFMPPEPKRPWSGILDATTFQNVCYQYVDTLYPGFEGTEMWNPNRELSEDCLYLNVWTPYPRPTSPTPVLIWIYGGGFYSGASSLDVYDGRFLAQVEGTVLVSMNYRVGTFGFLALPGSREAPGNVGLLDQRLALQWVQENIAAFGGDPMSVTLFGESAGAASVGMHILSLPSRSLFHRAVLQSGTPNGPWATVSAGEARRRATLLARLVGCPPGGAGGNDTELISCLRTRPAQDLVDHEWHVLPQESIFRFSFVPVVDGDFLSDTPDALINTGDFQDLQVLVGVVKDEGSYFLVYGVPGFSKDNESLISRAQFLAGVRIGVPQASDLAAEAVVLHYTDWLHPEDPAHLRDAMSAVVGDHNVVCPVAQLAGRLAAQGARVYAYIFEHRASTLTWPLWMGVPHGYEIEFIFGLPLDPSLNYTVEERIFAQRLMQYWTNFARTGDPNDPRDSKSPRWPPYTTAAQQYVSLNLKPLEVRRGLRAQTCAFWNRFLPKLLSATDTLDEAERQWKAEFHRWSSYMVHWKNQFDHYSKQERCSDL

CC(=CCCC(C=O)=CC=CC1=CC(=O)OC1O)CCC1=C(C)CCCC1(C)C (single isomer, unassigned) [dehydro-seco-manoalide]
effects on skeletal muscle (isolated diaphragm): no significant activity | PMA Mouse Ear anti-inflammatory activity (remark) ([1]; mouse, in vivo): anti-inflammatoryactivity | anti-inflammatory potency relative to comparators ([1]; mouse, in vivo): nearly equivalent in potency to that of manoalide | effects on cardiac muscle [2]: no significant activity | inhibition of cell division [3]: no significant activity

C[C@]12CCC(=O)C=C1CC[C@@H]1[C@@H]2[C@@H](O)C[C@@]2(C)[C@H]1CC[C@]2(O)C(=O)CO [Hydrocortisone, hydrocortisone, reference compound]
effect on ARA induced ear inflammation [4]: Neither manoalide nor hydrocortisone affected the ARA induced inflammation | % Inhibition of Edema Alone [1]: 16.59 ± 7.00% | EAR WEIGHT (MGS) ([5]; dose 50 μg/ear): 9.7 ± 1.2 MGS | EAR WEIGHT (MGS) ([5]; dose 100 μg/ear): 9.2 ± 0.4 MGS

COc1ccc2c(c1)c(CC(=O)O)c(C)n2C(=O)c1ccc(Cl)cc1 [Indomethacin, indomethacin, reference compound]
effect on ARA induced ear inflammation [4]: effectively blocked | % Inhibition of Edema Alone [1]: 31.42 ± 12.72% | EAR WEIGHT (MGS) ([5]; dose 50 μg/ear): 16.6 ± 5.7 MGS | EAR WEIGHT (MGS) ([5]; dose 100 μg/ear): 11.1 ± 1.2 MGS

CC1=C(CC/C(C)=C/CCC2=CCC(C3=CC(=O)OC3O)OC2O)C(C)(C)CCC1 (centres unmarked) [Manoalide]
effect on ARA induced ear inflammation [4]: Inactive | effect on ARA induced ear inflammation ([4]; listed as manoalide): Neither manoalide nor hydrocortisone affected the ARA induced inflammation | Rat Uterus (Prostaglandin Assay) activity (isolated rat uterus): Inactive | Rat Uterus (Prostaglandin Assay) activity (isolated rat uterus; listed as manoalide): inactive against these agents | PMA - Mouse Ear Time Course of Action: time of optimum activity relative to PMA application [6]: < 5 min | PMA - Mouse Ear Time Course of Action: time of optimum activity relative to PMA application ([6]; listed as manoalide): five | contracture in the rat hemidiaphragm preparation (isolated diaphragm): modest contracture | effect on the directly stimulated twitch (isolated diaphragm): mildly inhibiting the directly stimulated twitch | Rat Phrenic Nerve - Hemidiaphragm (remark) (isolated diaphragm; initial screening): Active | % Inhibition of Edema Alone [1]: 28.24 ± 6.58% | PMA - Mouse Ear Competition for binding ([1]; mouse, in vivo): Does not compete | PMA - Mouse Ear Potentiation (with Hydrocortisone and Indomethacin) ([1]; mouse, in vivo): Active | PMA Mouse Ear anti-inflammatory activity (remark) ([1]; mouse, in vivo): Active; also recorded: blocks this inflammation | anti-inflammatory potency relative to comparators ([1]; mouse, in vivo): greater than that of indomethacin; also recorded: less potent than hydrocortisone | anti-inflammatory potency relative to comparators [1, 13]: more potent than indomethacin and less potent than hydrocortisone | ED50 (PMA induced ear inflammation) ([1]; topical, will vary with PMA dose): ~40 μg/ear | reduction of inflammation due to PMA induction ([1]; total dose of 10 μg applied to the ear): marked reduction of inflammation | inactivation of β-Bungarotoxin neurotoxic action (β-bungarotoxin): inactivated the irreversible neurotoxic action of β-bungarotoxin; also recorded: prevents the paralytic action of β-bungarotoxin | Mouse Toxicity and Analgesia (remark) (mice [7]): Active | Inhibition of purified phosplolipase A2 (remark) [8]: Active | effect on enzyme activity (hydrolysis of phosphatidylcholine) [8]: concentration dependent decrease in enzyme activity; also recorded: potent inhibitor of the hydrolysis of phosphatidylcholine | type of inhibition of phospholipase A2 [8]: non-competitive inhibitor | Analgesia (Haffner Tail-Clip), mechanically induced pain (mice [9]): Inactive | Analgesia (Haffner Tail-Clip), mechanically induced pain (mice [9]; listed as manoalide): did not significantly affect mechanically induced pain | Acetylcholine Antagonism in Guinea Pig Auricles [2]: Inactive | Guinea Pig Auricles (remark) ([2]; initial screening): Active | Acetylcholinesterase (remark) (acetylcholinesterase): Inactive | Electrically Stimulated Guinea Pig Ileum (remark) [10]: Inactive | antagonism of the morphine block [10]: nor did it antagonize the morphine block | block of electrically induced contractions [10]: neither blocked electrically induced contractions | incidence of tumors formed on mouse ears [11]: significantly decreases the incidence of tumors | EAR WEIGHT (MGS) ([5]; dose 50 μg/ear): 17.5 ± 3.7 MGS | EAR WEIGHT (MGS) ([5]; dose 100 μg/ear): 13.1 ± 1.4 MGS | effect on oxazolone induced inflammation [5, 13]: blocks the oxazolone induced inflammation | IC50 ([3]; Lytechinus pictus, 1.5 h, read-out: Fertilized Sea Urchin Egg ED50): 1 µg/mL (≈ 2.4 µM) | Fertilized Sea Urchin Egg Inhibition of Cleavage (remark) ([3]; initial screening): Active | Histology of PMA treated ears (mouse ears): Decreased lymphocyte | Histology of PMA treated ears (mouse ears; listed as manoalide): qualitatively produced similar effects to both hydrocortisone and indomethacin | Guinea Pig Ileum (remark) [12]: Active

CCN(CC)CCCC(C)Nc1c2ccc(Cl)cc2nc2ccc(OC)cc12 (centres unmarked) [mepacrine]
Mean TI50 ± S.E. (β-bungarotoxin): 43.50 ± 2.50 and 49.00 ± 4.00 and 46.60 ± 7.54 and 35.66 ± 4.67 | effect on enzyme activity (hydrolysis of phosphatidylcholine) [8]: ineffective

CC1=C(CC/C(C)=C/CCC(C=O)=CCC(O)C2=CC(=O)OC2O)C(C)(C)CCC1 (centres unmarked) [seco-manoalide]
effects on skeletal muscle (isolated diaphragm): no significant activity | PMA Mouse Ear anti-inflammatory activity (remark) ([1]; mouse, in vivo): anti-inflammatoryactivity | anti-inflammatory potency relative to comparators ([1]; mouse, in vivo): nearly equivalent in potency to that of manoalide | effects on cardiac muscle [2]: no significant activity | inhibition of cell division [3]: no significant activity
